Results: patent publication US20230390273A1, “4-PHENYL-TETRAHYDROPYRIDINE DERIVATIVES FOR TREATING HEARING DISEASES” (CILCARE DEV, priority 2021, published 2023)
Counter-ions that a name gives are not always drawn.

Tests used:
male Wistar rats [1] = assay: ABR/DPOAE assessment, noise-induced permanent hearing loss, immediate trans-tympanic treatment (Example 6); format: in vivo; details: T0+28 days, versus traumatized animals untreated or vehicle; treatment 2 hours and 8 days post-noise
Procedure: Fifty male Wistar rats were selected and distributed to treatment (“traumatized paliroden” group and “traumatized xaliproden” group) and control groups (“sham” group, “traumatized” group and “traumatized vehicle” group), each group comprising at least 9 rats at the end of the study. Randomization was performed using the ABR threshold in the left ear at 16 kHz as a criterium. The “sham” group consists in rats (n=11) that received neither noise exposure nor trans-tympanic injection. The “traumatized” group consists of rats (n=9) that received noise exposure only and no treatment. The “traumatized vehicle” group consists in rats (n=10) that received noise exposure and trans-tympanic injection in both ears of 30 μL of placebo (a composition comprising Poloxamer 407 (7,2% w/w), Poloxamer 188 (8% w/w) and Cremophor EL® (20% w/w) in phosphate buffer pH=7.4, the percentages being expressed relative to the total weight of the composition) between the eardrum and the round window by means of a needle which crosses the eardrum, 4 hours after the start of the noise exposure (i.e. injection of placebo at T0+4 hours, thus 2 hours after the end of the noise exposure) and 8 days post-noise exposure, under isoflurane anesthesia. […]

male Wistar rats [2] = assay: ABR/DPOAE assessment, noise-induced permanent hearing loss, delayed trans-tympanic treatment (Example 7); format: in vivo; details: T0+28 days, versus traumatized animals untreated or vehicle; treatment 2 days and 9 days post-noise
Procedure: Forty male Wistar rats were selected and evenly distributed to treatment and control groups, each group comprising 8 rats at the end of the study. Randomization was performed using the ABR threshold in the left ear at 16 kHz as a criterium. The “sham” group consists in rats (n=8) that received neither noise exposure nor trans-tympanic injection. The “traumatized NaCl” group consists of rats (n=8) that received noise exposure only and trans-tympanic injections of a saline solution. The “traumatized vehicle” group consists in rats (n=8) that received noise exposure and trans-tympanic injections of placebo (a composition comprising Poloxamer 407 (7,2% w/w), Poloxamer 188 (8% w/w) and Cremophor EL® (20% w/w) in phosphate buffer pH=7.4, the percentages being expressed relative to the total weight of the composition). The “traumatized paliroden” group consists in rats (n=8) that received noise exposure and trans-tympanic injections of a composition comprising paliroden (fumarate salt), corresponding to composition 4P described in Example 2. The “traumatized xaliproden” group consists in rats (n=10) that received noise exposure and a trans-tympanic injection of a composition comprising xaliproden (hydrochloride salt), corresponding to composition 4X described in Example 2. […]

SMILES | Effect on ABR thresholds, DPOAE amplitudes, ABR Wave I amplitudes (male Wistar rats [1]) | Effect on ABR thresholds, DPOAE amplitudes, ABR Wave I amplitudes (male Wistar rats [2])
FC(F)(F)c1cccc(C2=CCN(CCc3ccc4ccccc4c3)CC2)c1 [xaliproden (hydrochloride salt), 1-[2-(2-naphthyl)ethyl]-4-(3-trifluoromethylphenyl)-1,2,3,6-tetrahydropyridine] | did not show effect | did not show effect
FC(F)(F)c1cccc(C2=CCN(CCc3ccc(-c4ccccc4)cc3)CC2)c1 [paliroden (fumarate salt), 1-[2-(4-biphenylyl)ethyl]-4-(3-trifluoromethylphenyl)-1,2,3,6-tetrahydropyridine] | did not show effect | did not show effect
